Patent publication US10800789B2, “Antiviral compounds” (Gilead Pharmasset LLC, priority 2012, dated 2020)
Like-named read-outs stand apart in the source and are kept apart here.

How the values were obtained:
[1] = tested on: NS5A chimeric genotype 2a JFH-1 replicon with genotype 2b MD2b-1 strain NS5A gene (M31 present); experiment: Replicon assay, genotype 2b NS5A chimera; assay type: cell-based, HCV; settings: Hepatitis C virus
How it was run: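 EC50 was fitted by non-linear regression to Renilla luciferase signal after 72 h of exposure to 3-fold serially diluted compound (10 mM DMSO stocks). Controls were DMSO (none) and ITMN-191 above 100×EC50 (full). Chimeric 2a replicons were used either stable or transiently transfected into Huh-Lunet cells.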

[2] = tested on: stable HCV 1b RLuc replicon cells (dicistronic genotype 1b Con1 replicon); experiment: Renilla luciferase HCV replicon reporter assay, genotype 1b; assay type: cell-based; settings: Hepatitis C virus, 72 h, stable 1b Con1 RLuc replicon cells, 72 hours; read-out: 1b
How it was run: (§1)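 First, 3-fold serial dilutions of compound went onto replicon cells, DMSO serving as no-inhibition control and ITMN-191 at >100×EC50 as positive control. Next came 72 h incubation, lysis and Renilla luciferase measurement. Finally, EC50 was calculated by non-linear regression; replicons covered genotypes 1a H77, 1b Con1, 2a JFH-1 (L31) and J6-NS5A chimera (M31).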

[3] = tested on: NS5A chimeric genotype 1b Con1 replicon with genotype 4a ED43 strain NS5A gene; experiment: Replicon assay, genotype 4a NS5A chimera; assay type: cell-based, HCV; settings: Hepatitis C virus
[4] = tested on: stable HCV 1a RLuc replicon cells (dicistronic genotype 1a H77 replicon); experiment: Renilla luciferase HCV replicon reporter assay, genotype 1a; assay type: cell-based; settings: Hepatitis C virus, 72 h, stable 1a H77 RLuc replicon cells
How it was run: as §1

[5] = tested on: NS5A chimeric genotype 2a JFH-1 replicon with genotype 2a J6 strain NS5A gene (M31 present); experiment: Replicon assay, genotype 2a J6 NS5A chimera; assay type: cell-based, HCV; settings: Hepatitis C virus
How it was run: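 Cells carrying the stable or transiently transfected (Huh-Lunet) dicistronic RLuc replicons received 3-fold serial compound dilutions from 10 mM DMSO stocks. After 72 h, cells were lysed and Renilla luciferase read. DMSO served as the no-inhibition control and ITMN-191 above 100×EC50 as the positive control; EC50 by non-linear regression.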

[6] = tested on: stable HCV 2a JFH-1 Rluc replicon cells (L31 present in NS5A); experiment: Renilla luciferase HCV replicon reporter assay, genotype 2a JFH-1; assay type: cell-based; settings: Hepatitis C virus
How it was run: as §1

[7] = tested on: Q30R in genotype 1a NS5A (1a Pi-Rluc replicon, Huh-7-derived cured-51 cells); experiment: Replicon assay against resistance mutant 1a Q30R; assay type: cell-based, HCV; settings: Hepatitis C virus
Description: Antiviral potency (EC50) was determined using a Renilla luciferase (RLuc)-based HCV replicon reporter assay. To perform the assay for genotype 1 and 2a JFH-1, stable HCV 1a RLuc replicon cells (harboring a dicistronic genotype 1a H77 replicon that encodes a RLuc reporter), stable HCV 1b RLuc replicon cells (harboring a dicistronic genotype 1b Con1 replicon that encodes a RLuc reporter), or stable HCV 2a JFH-1 Rluc replicon cells (harboring a dicistronic genotype 2a JFH-1 replicon that encodes a RLuc reporter; with L31 present in NS5A) were dispensed into 384-well plates for EC50 assays. To perform the assay for genotype 2a (with M31 present in NS5A) or 2b, NS5A chimeric genotype 2a JFH-1 replicons that encodes a RLuc-Neo reporter and either genotype 2a J6 strain NS5A gene or genotype 2b MD2b-1 strain NS5A gene (both with M31 present) respectively, were either transiently transfected (t) into Huh-Lunet cells or were established as stably replicating replicon cells (s) is provided. Either cells were dispensed into 384-well plates for EC50 assays. To perform the assay for genotype 3 and 4, NS5A chimeric genotype 1b Con1 replicons that encodes a Pi-RLuc reporter and either genotype 3a S52 strain NS5A gene or genotype 4a ED43 strain NS5A gene respectively, were transiently transfected (t) into Huh-Lunet cells, which were subsequently dispensed into 384-well plates. Compounds were dissolved in DMSO at a concentration of 10 mM and diluted in DMSO either manually or using an automated pipeting instrument. Serially 3-fold diluted compounds were either manually mixed with cell culture media and added to the seeded cells or directly added to the cells using an automated instrument. DMSO was used as a negative (solvent; no inhibition) control, and the protease inhibitor ITMN-191 was included at a concentration>100×EC50 as a positive control. 72 hours later, cells were lysed and Renilla luciferase activity quantified as recommended by the manufacturer (Promega-Madison, Wis.). Non-linear regression was performed to calculate EC50 values.
To determine the antiviral potency (EC50) against resistance mutants, resistance mutations, including M28T, Q30R, Q30H, Q30E, L31M, Y93C, Y93H, and Y93N in genotype 1a NS5A, Y93H and L31V/Y93H in genotype 1b NS5A, and Y93H for in genotype 3a NS5A, were introduced individually into either 1a Pi-Rluc or 1b Pi-Rluc replicons by site directed mutagenesis. Replicon RNA of each resistant mutant was transiently transfected into Huh-7-derived cured-51 cells and antiviral potency was determined on these transfected cells as described above.

[8] = tested on: NS5A chimeric genotype 1b Con1 replicon with genotype 3a S52 strain NS5A gene; experiment: Replicon assay, genotype 3a NS5A chimera; assay type: cell-based, HCV; settings: Hepatitis C virus
[9] = 2BS, read-out: 2b (s), stably replicating replicon cells (s), activity range
[10] = read-out: 2b (s) (nM), genotype 2b MD2b-1 NS5A chimeric replicon (M31), stably replicating replicon cells (s)
[11] = read-out: 4a (s) (nM), genotype 4a NS5A chimeric replicon, stable replicon cells (s)
[12] = read-out: 4a (s), (s), activity range
[13] = read-out: 2a J6 (t) (nM), genotype 2a J6 NS5A chimeric replicon (M31), transiently transfected (t) into Huh-Lunet cells
[14] = read-out: 2a J6 (t), transiently transfected (t) into Huh-Lunet cells, activity range
[15] = read-out: 2a JFH (nM), genotype 2a JFH-1 replicon (L31 in NS5A), stable cells
[16] = read-out: 2a JFH, stable 2a JFH-1 Rluc replicon cells, L31 in NS5A, activity range
[17] = read-out: 3a (s) (nM), genotype 3a NS5A chimeric replicon, stable replicon cells (s)
[18] = read-out: 3a (s), (s), activity range
[19] = read-out: 2b (t) (nM), genotype 2b MD2b-1 NS5A chimeric replicon (M31), transiently transfected (t)
[20] = read-out: 2b (t), transiently transfected (t) into Huh-Lunet cells, activity range

SMILES | EC50 [1, 9] [nM] | EC50 [1, 10] [nM] | EC50 [2] [nM] | EC50 [3, 11] [nM] | EC50 [3, 12] [nM] | EC50 [4] [nM] | EC50 ([4]; activity range) [nM] | EC50 [5, 13] [nM] | EC50 [5, 14] [nM] | EC50 [6, 15] [nM] | EC50 [6, 16] [nM] | EC50 ([7]; read-out: 1a Q30R) [nM] | EC50 ([7]; read-out: 1a Q30R (nM)) [nM] | EC50 [8, 17] [nM] | EC50 [8, 18] [nM] | EC50 ([8]; read-out: 3a (t) (nM), genotype 3a NS5A chimeric replicon, transiently transfected (t)) [nM] | EC50 ([8]; read-out: 3a (t), transiently transfected (t) into Huh-Lunet cells, activity range) [nM] | EC50 [1, 19] [nM] | EC50 [1, 20] [nM]
COC[C@H]1C[C@@H](c2ncc(-c3ccc4c(c3)COc3cc5c(ccc6nc([C@@H]7C[C@H](COC)CN7C(=O)[C@H](NC(=O)OC)c7ccccc7)[nH]c65)cc3-4)[nH]2)N(C(=O)[C@H](NC(=O)OC)c2ccccc2)C1 [EY, Methyl {(1R)-2-[(2S,4S)-2-(5-{2-[(2S,4S)-1-{(2R)-2-[(methoxycarbonyl)amino]-2-phenylacetyl}-4-(methoxymethyl)pyrrolidin-2-yl]-1,11-dihydroisochromeno[4′,3′:6,7]naphtho[1,2-d]imidazol-9-yl}-1H-imidazol-2-yl)-4-(methoxymethyl)pyrrolidin-1-yl]-2-oxo-1-phenylethyl}carbamate] | < 0.1 | 0.035 | 0.049 | 0.025 | < 0.1 | 0.029 | < 0.1 | 0.008 | < 0.1 | 0.029 | < 0.1 | < 0.1 | 0.057 | 0.087 | < 0.1 | 0.118 | 0.1 to 0.999 |  | 
COC[C@H](NC(=O)OC)C(=O)N1[C@@H](C)CC[C@H]1c1nc2ccc3cc4c(cc3c2[nH]1)OCc1cc(-c2cnc([C@@H]3CC[C@H](C)N3C(=O)[C@@H](NC(=O)OC)C(C)C)[nH]2)ccc1-4 [FE, Methyl [(2S)-1-{(2S,5S)-2-[5-(2-{(2S,5S)-1-[N-(methoxycarbonyl)-O-methyl-L-seryl]-5-methylpyrrolidin-2-yl}-1,11-dihydroisochromeno[4′,3′:6,7]naphtho[1,2-d]imidazol-9-yl)-1H-imidazol-2-yl]-5-methylpyrrolidin-1-yl}-3-methyl-1-oxobutan-2-yl]carbamate] | 0.1 to 0.999 | 0.463 | 0.015 | 0.012 | < 0.1 | 0.012 | < 0.1 | 0.122 | 0.1 to 0.999 | 0.016 | < 0.1 | 0.1 to 0.999 | 0.253 | 0.072 | < 0.1 |  |  |  | 
CC[C@H](C)[C@H](NC(=O)OC)C(=O)N1[C@@H](C)CC[C@H]1c1ncc(-c2ccc3c(c2)COc2cc4c(ccc5nc([C@@H]6CC[C@H](C)N6C(=O)[C@@H](NC(=O)OC)C6CCOCC6)[nH]c54)cc2-3)[nH]1 [GG, Methyl [(2S,3S)-1-{(2S,5S)-2-[5-(2-{(2S,5S)-1-[(2S)-2-[(methoxycarbonyl)amino]-2-(tetrahydro-2H-pyran-4-yl)acetyl]-5-methylpyrrolidin-2-yl}-1,11-dihydroisochromeno[4′,3′:6,7]naphtho[1,2-d]imidazol-9-yl)-1H-imidazol-2-yl]-5-methylpyrrolidin-1-yl}-3-methyl-1-oxopentan-2-yl]carbamate] | < 0.1 | 0.083 | 0.022 | 0.013 | < 0.1 | 0.015 | < 0.1 |  |  | 0.02 | < 0.1 | < 0.1 | 0.032 | 0.038 | < 0.1 |  |  | 0.044 | < 0.1
COC(=O)N[C@H](C(=O)N1[C@@H](C)CC[C@H]1c1ncc(-c2ccc3c(c2)COc2cc4c(ccc5nc([C@@H]6CC[C@H](C)N6C(=O)[C@@H](NC(=O)OC)[C@@H](C)OC)[nH]c54)cc2-3)[nH]1)C1CCOCC1 [FR, Methyl [(1 S)-2-[(2S,5S)-2-(5-{2-[(2S,5S)-1-{(2S,3R)-3-methoxy-2-[(methoxycarbonyl)amino]butanoyl}-5-methylpyrrolidin-2-yl]-1,11-dihydroisochromeno[4′,3′:6,7]naphtho[1,2-d]imidazol-9-yl}-1H-imidazol-2-yl)-5-methylpyrrolidin-1-yl]-2-oxo-1-(tetrahydro-2H-pyran-4-yl)ethyl]carbamate] | < 0.1 | 0.054 | 0.05 |  |  | 0.026 | < 0.1 |  |  | 0.015 | < 0.1 | < 0.1 | 0.071 | 0.031 | < 0.1 |  |  |  | 
COC(=O)N[C@H](C(=O)N1[C@@H](C)CC[C@H]1c1ncc(-c2ccc3c(c2)COc2cc4c(ccc5nc([C@@H]6CC[C@H](C)N6C(=O)[C@@H](NC(=O)OC)[C@@H](C)O)[nH]c54)cc2-3)[nH]1)C(C)C [FI, Methyl {(2S,3R)-3-hydroxy-1-[(2S,5S)-2-(9-{2-[(2S,5S)-1-{(2S)-2-[(methoxycarbonyl)amino]-3-methylbutanoyl}-5-methylpyrrolidin-2-yl]-1H-imidazol-5-yl}-1,11-dihydroisochromeno[4′,3′:6,7]naphtho[1,2-d]imidazol-2-yl)-5-methylpyrrolidin-1-yl]-1-oxobutan-2-yl}carbamate] | 0.1 to 0.999 | 0.152 | 0.022 | 0.012 | < 0.1 | 0.01 | < 0.1 |  |  | 0.015 | < 0.1 | 0.1 to 0.999 | 0.115 | 0.04 | < 0.1 |  |  |  | 
CC[C@H]1CC[C@@H](c2nc3ccc4cc5c(cc4c3[nH]2)OCc2cc(-c3cnc([C@@H]4CC[C@H](C)N4C(=O)[C@@H](NC(=O)OC)C(C)C)[nH]3)ccc2-5)N1C(=O)[C@@H](NC(=O)OC)C1CCOCC1 [EO, methyl[(1 S)-2-[(2S,5S)-2-ethyl-5-(9-{2-[(2S,5S)-1-{(2S)-2 [(methoxycarbonyl)amino]-3-methylbutanoyl}-5-methylpyrrolidin-2-yl]-1H-imidazol-5-yl}-1,11-dihydroisochromeno[4′,3′:6,7]naphtho[1,2-d]imidazol-2-yl)pyrrolidin-1-yl]-2-oxo-1-(tetrahydro-2H-pyran-4-yl)ethyl]carbamate] | < 0.1 | 0.091 | 0.04 |  |  | 0.024 | < 0.1 |  |  | 0.017 | < 0.1 | < 0.1 | 0.052 | 0.054 | < 0.1 |  |  | 0.038 | < 0.1
